ChEMBL document CHEMBL1201862, “PubChem BioAssay data set” (2004)
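Values below derive from 48-hour exposures of cells grown in 96-well plates, with endpoints linearly interpolated between the two concentrations bracketing the appropriate inhibition level. GI50 is the concentration that inhibits growth by half.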 Active and inactive are the calls of the source. Rule as the data show it: active = GI50 up to about 1.1 µM and inactive = higher.

How the values were obtained:
Experiment in all cases: NCI tumour cell line growth inhibition, 48 h
786-0 = system: 786-0
CCRF-CEM = system: CCRF-CEM
COLO 205 = system: COLO 205
DU-145 = system: DU-145
HCC 2998 = system: HCC 2998
Hs-578T = system: Hs-578T
KM12 = system: KM12
MDA-MB-231 = system: MDA-MB-231
MDA-MB-435 = system: MDA-MB-435
NCI/ADR-RES = system: NCI/ADR-RES
OVCAR-3 = system: OVCAR-3
OVCAR-5 = system: OVCAR-5
OVCAR-8 = system: OVCAR-8
SF-539 = system: SF-539
SK-MEL-2 = system: SK-MEL-2
SK-MEL-5 = system: SK-MEL-5
SK-OV-3 = system: SK-OV-3
SNB-75 = system: SNB-75
UACC-257 = system: UACC-257
NCI-H226 = system: NCI-H226

Measured: GI50

Cc1cc(C(C)(C)C)c(OCCCN2CCOCC2)c(C(C)(C)C)c1
inactive: 786-0 17.3 µM | CCRF-CEM 16.6 µM | COLO 205 15.7 µM | DU-145 17.1 µM | HCC 2998 16.7 µM | Hs-578T 20.7 µM | KM12 17.5 µM | MDA-MB-231 17.4 µM | MDA-MB-435 19.4 µM | NCI/ADR-RES 17 µM | OVCAR-3 19.2 µM | OVCAR-5 17.9 µM | OVCAR-8 20.2 µM | SF-539 18.7 µM | SK-MEL-2 16.5 µM | SK-MEL-5 15.9 µM | SK-OV-3 20 µM | SNB-75 16.7 µM | UACC-257 17.3 µM

O=c1[nH]c2ccccc2c2nc3ccccc3n12
inactive: 786-0 81.8 µM | CCRF-CEM > 100 µM | COLO 205 29.2 µM | DU-145 > 100 µM | HCC 2998 27.9 µM | Hs-578T 65.6 µM | KM12 22.4 µM | MDA-MB-231 16.9 µM | MDA-MB-435 > 100 µM | NCI/ADR-RES 81.1 µM | OVCAR-3 54.5 µM | OVCAR-5 > 100 µM | OVCAR-8 > 100 µM | SF-539 24.4 µM | SK-MEL-5 19.5 µM | SK-OV-3 14 µM | UACC-257 38.1 µM

COc1cc2ccc1OCc1cccc(n1)COc1ccc(cc1OC)/C=N\CCNCC/N=C\2
inactive: 786-0 > 100 µM | COLO 205 > 100 µM | DU-145 > 100 µM | HCC 2998 > 100 µM | Hs-578T 35.4 µM | MDA-MB-231 35.2 µM | MDA-MB-435 > 100 µM | NCI-H226 > 100 µM | NCI/ADR-RES > 100 µM | OVCAR-3 > 100 µM | OVCAR-5 > 100 µM | OVCAR-8 > 100 µM | SF-539 > 100 µM | SK-MEL-2 > 100 µM | SK-MEL-5 > 100 µM | SK-OV-3 63.4 µM | SNB-75 30.5 µM | UACC-257 > 100 µM

C[Si](C)(C)OC1c2[nH]c3ccccc3c2CN2C(=O)CCC12 (stereo unspecified)
inactive: 786-0 > 100 µM | COLO 205 > 100 µM | DU-145 > 100 µM | HCC 2998 > 100 µM | Hs-578T > 100 µM | KM12 > 100 µM | MDA-MB-231 > 100 µM | MDA-MB-435 > 100 µM | NCI-H226 > 100 µM | NCI/ADR-RES > 100 µM | OVCAR-3 > 100 µM | OVCAR-5 > 100 µM | OVCAR-8 > 100 µM | SF-539 > 100 µM | SK-MEL-2 > 100 µM | SK-MEL-5 > 100 µM | SK-OV-3 > 100 µM | SNB-75 > 100 µM | UACC-257 > 100 µM

Oc1ccccc1/C=N/Nc1nnc2c3ccccc3c3ccccc3c2n1
inactive: 786-0 > 100 µM | CCRF-CEM > 100 µM | COLO 205 > 100 µM | DU-145 > 100 µM | Hs-578T > 100 µM | KM12 71.4 µM | MDA-MB-231 > 100 µM | MDA-MB-435 28.1 µM | NCI-H226 > 100 µM | NCI/ADR-RES 47.9 µM | OVCAR-3 14.6 µM | OVCAR-5 > 100 µM | OVCAR-8 > 100 µM | SF-539 > 100 µM | SK-MEL-2 55.5 µM | SK-MEL-5 48.3 µM | SK-OV-3 58.3 µM | SNB-75 20.8 µM | UACC-257 25.2 µM

CC(=O)OCCc1cc2ccccc2oc1=O
inactive: 786-0 > 100 µM | CCRF-CEM > 100 µM | COLO 205 > 100 µM | DU-145 > 100 µM | HCC 2998 > 100 µM | Hs-578T > 100 µM | KM12 > 100 µM | MDA-MB-231 > 100 µM | MDA-MB-435 > 100 µM | NCI-H226 > 100 µM | NCI/ADR-RES > 100 µM | OVCAR-3 > 100 µM | OVCAR-5 > 100 µM | OVCAR-8 > 100 µM | SF-539 > 100 µM | SK-MEL-2 > 100 µM | SK-MEL-5 > 100 µM | SNB-75 > 100 µM | UACC-257 > 100 µM
